From the supplement of paper PMC10307832

Key:
Assay in all cases: relative viability (nuclei count vs DMSO), 5 days (fraction); higher = more cells survive
[1] = compound: COC1=C(C=C(C=C1)C2=CC3=NC=CN3C(=N2)NC4=C(C=CC=N4)C(=O)N)OC [BAY61-3606] + COc1cc2c(Oc3ccc(NC(=O)C4(C(=O)Nc5ccc(F)cc5)CC4)cc3F)ccnc2cc1OCCCN1CCOCC1 [Foretinib] (partner 0.25 µM)
How it was run: (§1)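 Lung cancer cell lines were pin-tool dosed in 1536-well plates on the day after seeding, with either a lone drug or a fixed anchor-drug dose plus five library-drug doses (not always all listed) in √10 steps. Nuclei were counted on 4× images after 5 days. Relative viability is the ratio of treated-well to vehicle-well nuclei counts, with each value a median of duplicate plates.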

[2] = compound: COC1=C(C=C(C=C1)C2=CC3=NC=CN3C(=N2)NC4=C(C=CC=N4)C(=O)N)OC [BAY61-3606] + CS(=O)(=O)N1CCN(Cc2cc3nc(-c4cccc5[nH]ncc45)nc(N4CCOCC4)c3s2)CC1 [Pictilisib] (partner 1 µM)
How it was run: as §1

[3] = compound: COc1cccc2c1C(=O)c1c(O)c3c(c(O)c1C2=O)C[C@@](O)(C(=O)CO)C[C@@H]3O[C@H]1C[C@H](N)[C@H](O)[C@H](C)O1 [Doxorubicin] + Cc1cc(Nc2cc(N3CCN(C)CC3)nc(Sc3ccc(NC(=O)C4CC4)cc3)n2)n[nH]1 [Tozasertib] (partner 0.1 µM)
How it was run: as §1

[4] = compound: COc1cccc2c1C(=O)c1c(O)c3c(c(O)c1C2=O)C[C@@](O)(C(=O)CO)C[C@@H]3O[C@H]1C[C@H](N)[C@H](O)[C@H](C)O1 [Doxorubicin] + O=C(c1cc(Cc2n[nH]c(=O)c3ccccc23)ccc1F)N1CCN(C(=O)C2CC2)CC1 [Olaparib] (partner 8 µM)
How it was run: as §1

Cell Line	relative viability ([1]; first compound 0.02 µM)	relative viability ([1]; first compound 0.06325 µM)	relative viability ([1]; first compound 0.2 µM)	relative viability ([1]; first compound 0.6325 µM)	relative viability ([1]; first compound 2 µM)	relative viability ([2]; first compound 0.02 µM)	relative viability ([2]; first compound 0.06325 µM)	relative viability ([2]; first compound 0.2 µM)	relative viability ([2]; first compound 0.6325 µM)	relative viability ([2]; first compound 2 µM)	relative viability ([3]; first compound 0.001 µM)	relative viability ([3]; first compound 0.003162 µM)	relative viability ([3]; first compound 0.01 µM)	relative viability ([3]; first compound 0.03162 µM)	relative viability ([3]; first compound 0.1 µM)	relative viability ([4]; first compound 0.001 µM)	relative viability ([4]; first compound 0.003162 µM)	relative viability ([4]; first compound 0.01 µM)	relative viability ([4]; first compound 0.03162 µM)	relative viability ([4]; first compound 0.1 µM)
LU99A	0.915	0.656	0.858	0.63	0.526	0.343	0.352	0.34	0.329	0.278	0.298	0.28	0.287	0.281	0.309	0.235	0.264	0.287	0.274	0.253
ChaGo-K-1	0.868	0.834	0.93	0.948	0.788	0.897	0.591	0.708	0.506	0.696	0.229	0.199	0.222	0.208	0.226	0.437	0.408	0.352	0.486	0.442
NCI-H2347	1.03	0.601	1.46	0.856	1.17	0.715	0.495	0.801	0.746	0.892	0.62	0.551	0.736	0.53	0.636	0.6	0.562	0.544	0.516	0.55
NCI-H650	1.1	1.02	1.02	1.09	0.8	0.984	0.722	0.798	1.01	0.596	0.908	0.736	0.784	0.582	0.63	0.418	0.494	0.38	0.334	0.296
NCI-H1666	1.06	1.02	0.987	0.991	0.918	0.521	–	0.447	0.375	0.395	0.62	0.547	0.47	0.385	0.343	–	0.701	0.733	0.602	0.607
PC-3 [JPC-3]	–	1.03	1.08	1.06	0.949	0.784	0.695	0.695	0.678	0.561	0.887	0.888	0.915	0.866	0.856	1.04	0.944	1.17	0.897	0.825
HARA	0.926	0.76	0.832	0.887	0.631	0.444	0.371	0.372	0.39	0.312	0.112	0.126	0.241	0.128	0.145	1.05	0.8	0.722	0.718	0.759
NCI-H727	0.919	0.931	0.887	0.985	0.8	0.443	0.4	0.392	0.386	0.267	0.697	0.513	0.697	0.636	0.661	0.821	0.811	–	0.768	0.753
NCI-H1650	1.14	1.02	1.02	1.34	0.498	0.728	0.493	0.68	0.564	0.402	0.411	0.32	0.261	0.207	0.111	0.764	0.865	0.401	0.179	0.127
NCI-H2405	1.06	1.05	1.11	1.11	0.867	0.623	0.308	0.379	0.371	0.43	0.847	0.759	0.74	0.693	0.546	0.864	0.847	0.788	0.465	0.421
LOU-NH91	0.95	0.916	0.985	0.976	0.823	0.566	0.544	0.568	0.505	0.472	0.638	0.644	0.71	0.638	0.615	–	0.877	0.899	0.666	0.462
EPLC-272H	0.705	0.6	0.789	0.694	0.397	0.442	0.373	0.264	0.25	0.248	0.423	0.401	0.238	0.26	0.506	0.767	1.01	0.832	0.453	0.261
NCI-H1975	1.06	0.931	0.874	0.974	0.65	0.354	0.238	0.253	0.262	0.19	0.745	0.711	0.664	0.303	0.178	0.746	0.896	0.728	0.575	0.37
NCI-H322M	1.12	0.91	0.981	1.03	0.831	0.506	0.529	0.516	0.523	0.482	0.518	0.506	0.518	0.437	0.383	0.731	0.765	0.745	0.542	0.508
NCI-H520	0.935	0.716	0.839	0.669	0.744	0.316	0.32	0.329	0.261	0.317	0.409	0.432	0.434	0.343	0.413	0.318	0.337	0.313	0.248	0.297
NCI-H358	0.773	0.457	0.652	0.637	0.286	0.385	0.327	0.333	0.321	0.167	0.107	0.0976	0.0897	0.1	0.0933	0.592	0.535	0.347	0.12	0.116
NCI-H1395	1.13	0.934	0.951	0.995	0.807	0.777	0.524	0.584	0.641	0.559	0.791	0.724	0.89	0.65	0.799	0.445	0.506	0.466	0.417	0.4
LC-2-ad	1.05	0.83	0.971	1.11	0.653	0.405	0.429	0.29	0.468	0.235	0.455	0.402	0.401	0.246	0.239	0.343	0.679	0.707	0.707	0.696
SK-MES-1	1.08	0.918	0.85	0.96	0.839	0.393	0.337	0.333	0.354	0.315	0.856	0.867	0.583	0.211	0.162	0.659	0.534	0.266	0.2	0.146
SW 1573	1.18	0.872	0.81	0.839	0.757	0.476	0.44	0.464	0.514	0.367	0.185	0.144	0.148	0.103	0.0879	0.411	0.298	0.163	0.0977	0.047
CAL-12T	1.12	1.19	1	1.19	0.656	0.553	0.348	0.414	0.392	0.346	0.339	0.283	0.257	0.207	0.136	0.7	0.668	0.559	0.212	0.191
